Experimental data: article PMC3479135, “Crystal Structures of Bovine CD1d Reveal Altered αGalCer Presentation and a Restricted A’ Pocket Unable to Bind Long-Chain Glycolipids” (PLoS ONE, 2012)

Target: T1, boCD1d (bovine CD1d ectodomain with boβ2M) (Bos taurus, UniProt A1L565)
T1 construct: heavy-chain ectodomain (α1-α3), endogenous leader replaced by boCD1b3 leader, C-terminal hexa-His tag, no Fc; co-expressed with bovine β2m in baculovirus/insect cells; non-covalent heterodimer; N-glycosylated at Asn20 and Asn42; with Beta-2-microglobulin
T1 sequence (A1L565 129-405): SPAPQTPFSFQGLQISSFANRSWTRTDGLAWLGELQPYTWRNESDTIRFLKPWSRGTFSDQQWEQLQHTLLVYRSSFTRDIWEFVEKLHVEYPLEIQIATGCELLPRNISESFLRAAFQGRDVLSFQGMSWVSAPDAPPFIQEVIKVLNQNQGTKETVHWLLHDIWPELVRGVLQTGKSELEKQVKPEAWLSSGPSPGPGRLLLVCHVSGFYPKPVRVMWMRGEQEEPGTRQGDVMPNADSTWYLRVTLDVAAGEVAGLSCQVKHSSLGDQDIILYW
T1 sequence (P01888 21-118 partner): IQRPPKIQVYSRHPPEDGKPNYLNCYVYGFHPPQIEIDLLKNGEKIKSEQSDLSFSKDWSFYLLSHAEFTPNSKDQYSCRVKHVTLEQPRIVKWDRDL
Assay: X-ray crystal structure, […] Å; native IEF gel shift
Type: binding
Details: crystallised in 20% PEG 3350, 0.2 M sodium formate; IEF loading overnight at room temperature, 100 mM Tris-HCl pH 7, no Tween 20; A' and F' pockets

CCCCCCCCCCCCC/C=C/[C@@H](O)[C@H](CO[C@@H]1O[C@H](COS(=O)(=O)O)[C@H](O)[C@H](OS(=O)(=O)O)[C@H]1O)NC(=O)CCCCCCCCCCC [compound 2, C12∶0-di-sulfatide]
X-ray crystal structure, 2.9 Å; native IEF gel shift: we crystallized boCD1d in complex with synthetic C12∶0-di-sulfatide (di-SLF)
